Measurements taken from patent publication US9562899B2, “Method of detecting OXA-048 carbapenemase producing bacteria” (BIOMÉRIEUX, priority 2012, dated 2017).

Assays:
KPC strains = assay: Temocillin MIC with EDTA in the medium (Example 2); type: cell-based, Enterobacteriaceae; settings: Ex 2, MIC in mg/l
Text: (§1) Optimization of the Detection Specificity by Introducing Specific Inhibitors Inhibition of Class B Strains (NDM, VIM, IMP) by Adding EDTA
(§2) Identical to that used to determine the temocillin MICs by agar dilution (example 1).
(§3) For each temocillin concentration, the following concentrations of active EDTA will be tested in the form of disodium EDTA: 0, 1.77, 2.12, 2.47 and 2.83 mmol/l.
(§4) Method: identical to the method used in example 1.

OXA-48 strains = assay: Temocillin MIC with EDTA in the medium (Example 2); type: cell-based, Enterobacteriaceae; settings: Ex 2, MIC in mg/l
Text: as §1, §2, §3, §4

CO[C@@]1(NC(=O)C(C(=O)O)c2ccsc2)C(=O)N2[C@@H](C(=O)O)C(C)(C)S[C@@H]21 (some centres unmarked) [temocillin]
18: No. of KPC strains with MIC ≦50 (KPC strains; 0 mmol/l of EDTA) | No. of KPC strains with MIC ≦50 (KPC strains; 1.77 mmol/l of active EDTA) | No. of KPC strains with MIC ≦50 (KPC strains; 2.12 mmol/l of active EDTA) | No. of KPC strains with MIC ≦50 (KPC strains; 2.47 mmol/l of active EDTA)
3: No. of OXA-48 strains with MIC 300 (OXA-48 strains; 0 mmol/l of EDTA) | No. of OXA-48 strains with MIC 300 (OXA-48 strains; 2.83 mmol/l of active EDTA) | No. of OXA-48 strains with MIC ≦50 (OXA-48 strains; 2.83 mmol/l of active EDTA)
2: No. of OXA-48 strains with MIC 300 (OXA-48 strains; 2.47 mmol/l of active EDTA)
12: No. of OXA-48 strains with MIC >300 (OXA-48 strains; 0 mmol/l of EDTA)
15: No. of OXA-48 strains with MIC >300 (OXA-48 strains; 1.77 mmol/l of active EDTA) | No. of OXA-48 strains with MIC >300 (OXA-48 strains; 2.12 mmol/l of active EDTA)
19: No. of KPC strains with MIC ≦50 (KPC strains; 2.83 mmol/l of active EDTA)
0: No. of KPC strains with MIC 150 (KPC strains; 0 mmol/l of EDTA) | No. of KPC strains with MIC 200 (KPC strains; 0 mmol/l of EDTA) | No. of KPC strains with MIC 300 (KPC strains; 0 mmol/l of EDTA) | No. of KPC strains with MIC 150 (KPC strains; 1.77 mmol/l of active EDTA) | No. of KPC strains with MIC 200 (KPC strains; 1.77 mmol/l of active EDTA) | No. of KPC strains with MIC 300 (KPC strains; 1.77 mmol/l of active EDTA) | No. of KPC strains with MIC 150 (KPC strains; 2.12 mmol/l of active EDTA) | No. of KPC strains with MIC 200 (KPC strains; 2.12 mmol/l of active EDTA) | No. of KPC strains with MIC 300 (KPC strains; 2.12 mmol/l of active EDTA) | No. of KPC strains with MIC 150 (KPC strains; 2.47 mmol/l of active EDTA) | No. of KPC strains with MIC 200 (KPC strains; 2.47 mmol/l of active EDTA) | No. of KPC strains with MIC 300 (KPC strains; 2.47 mmol/l of active EDTA) | No. of KPC strains with MIC 150 (KPC strains; 2.83 mmol/l of active EDTA) | No. of KPC strains with MIC 200 (KPC strains; 2.83 mmol/l of active EDTA) | No. of KPC strains with MIC 300 (KPC strains; 2.83 mmol/l of active EDTA) | No. of KPC strains with MIC >300 (KPC strains; 2.83 mmol/l of active EDTA) | No. of OXA-48 strains with MIC 150 (OXA-48 strains; 0 mmol/l of EDTA) | No. of OXA-48 strains with MIC 200 (OXA-48 strains; 0 mmol/l of EDTA) | No. of OXA-48 strains with MIC ≦50 (OXA-48 strains; 0 mmol/l of EDTA) | No. of OXA-48 strains with MIC 150 (OXA-48 strains; 1.77 mmol/l of active EDTA) | No. of OXA-48 strains with MIC 200 (OXA-48 strains; 1.77 mmol/l of active EDTA) | No. of OXA-48 strains with MIC 300 (OXA-48 strains; 1.77 mmol/l of active EDTA) | No. of OXA-48 strains with MIC ≦50 (OXA-48 strains; 1.77 mmol/l of active EDTA) | No. of OXA-48 strains with MIC 150 (OXA-48 strains; 2.12 mmol/l of active EDTA) | No. of OXA-48 strains with MIC 200 (OXA-48 strains; 2.12 mmol/l of active EDTA) | No. of OXA-48 strains with MIC 300 (OXA-48 strains; 2.12 mmol/l of active EDTA) | No. of OXA-48 strains with MIC ≦50 (OXA-48 strains; 2.12 mmol/l of active EDTA) | No. of OXA-48 strains with MIC 150 (OXA-48 strains; 2.47 mmol/l of active EDTA) | No. of OXA-48 strains with MIC 200 (OXA-48 strains; 2.47 mmol/l of active EDTA) | No. of OXA-48 strains with MIC ≦50 (OXA-48 strains; 2.47 mmol/l of active EDTA) | No. of OXA-48 strains with MIC 200 (OXA-48 strains; 2.83 mmol/l of active EDTA)
13: No. of OXA-48 strains with MIC >300 (OXA-48 strains; 2.47 mmol/l of active EDTA)
1: No. of KPC strains with MIC >300 (KPC strains; 0 mmol/l of EDTA) | No. of KPC strains with MIC >300 (KPC strains; 1.77 mmol/l of active EDTA) | No. of KPC strains with MIC >300 (KPC strains; 2.12 mmol/l of active EDTA) | No. of KPC strains with MIC >300 (KPC strains; 2.47 mmol/l of active EDTA) | No. of OXA-48 strains with MIC 150 (OXA-48 strains; 2.83 mmol/l of active EDTA)
8: No. of OXA-48 strains with MIC >300 (OXA-48 strains; 2.83 mmol/l of active EDTA)
